Data reported in ChEMBL document CHEMBL5653631, “A Potent and Selective ULK1 Inhibitor Suppresses Autophagy and Sensitizes Cancer Cells to Nutrient Stress” (iScience, 2018).
One block for each compound: values may come before it.

What was measured:
[1] = target: Phosphorylase b kinase gamma catalytic chain, skeletal muscle/heart isoform (Homo sapiens) (UniProt Q16816); experiment: Inhibition of human recombinant PHKg1 at 500 nM related to control ULK1
[2] = species on record: Homo sapiens; experiment: Inhibition of human recombinant CK1d at 500 nM related to control ULK1
[3] = target: Glycogen synthase kinase-3 alpha (Homo sapiens) (UniProt P49840); experiment: Inhibition of human recombinant GSK3A at 500 nM related to control ULK1
[4] = target: Insulin receptor-related protein (Homo sapiens) (UniProt P14616); experiment: Inhibition of human recombinant IRR at 500 nM related to control ULK1
[5] = target: Serine/threonine-protein kinase PAK 5 (Homo sapiens) (UniProt Q9P286); experiment: Inhibition of human recombinant PAK5 at 15 nM related to control ULK1
[6] = target: Serine/threonine-protein kinase 32C (Homo sapiens) (UniProt Q86UX6); experiment: Inhibition of human recombinant YANK3 at 15 nM related to control ULK1
[7] = target: T1, TGF-beta receptor type-1 (Homo sapiens) (UniProt P36897); experiment: Inhibition of human recombinant TGFbR1 at 15 nM related to control ULK1
T1 sequence (whole entry): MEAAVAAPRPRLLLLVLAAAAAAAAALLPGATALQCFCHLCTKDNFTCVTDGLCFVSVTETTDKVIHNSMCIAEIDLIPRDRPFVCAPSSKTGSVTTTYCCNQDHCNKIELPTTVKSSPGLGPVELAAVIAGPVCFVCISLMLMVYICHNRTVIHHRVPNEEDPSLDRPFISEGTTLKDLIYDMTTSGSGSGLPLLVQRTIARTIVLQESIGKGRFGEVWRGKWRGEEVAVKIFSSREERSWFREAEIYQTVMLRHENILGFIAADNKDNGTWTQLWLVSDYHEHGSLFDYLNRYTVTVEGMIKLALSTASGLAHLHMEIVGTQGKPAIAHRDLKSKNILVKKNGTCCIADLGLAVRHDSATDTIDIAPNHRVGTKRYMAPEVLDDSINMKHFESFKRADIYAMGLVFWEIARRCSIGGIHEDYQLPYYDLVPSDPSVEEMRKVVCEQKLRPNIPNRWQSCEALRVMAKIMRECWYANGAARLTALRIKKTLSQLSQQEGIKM

[8] = target: Ribosomal protein S6 kinase alpha-5 (Homo sapiens) (UniProt O75582); experiment: Inhibition of human recombinant MSK1 at 15 nM related to control ULK1
[9] = target: Fibroblast growth factor receptor 3 (Homo sapiens) (UniProt P22607); experiment: Inhibition of human recombinant FGFR3 at 40 nM in presence of ATP by radiometric assay relative to control
[10] = target: Dual specificity protein kinase CLK4 (Homo sapiens) (UniProt Q9HAZ1); experiment: Inhibition of human recombinant CLK4 at 40 nM related to control ULK1
[11] = target: Vascular endothelial growth factor receptor 2 (Homo sapiens) (UniProt P35968); experiment: Inhibition of human recombinant KDR at 40 nM related to control ULK1
[12] = target: T2, Homeodomain-interacting protein kinase 4 (Homo sapiens) (UniProt Q8NE63); experiment: Inhibition of human recombinant HIPK4 at 40 nM related to control ULK1
T2 sequence (whole entry): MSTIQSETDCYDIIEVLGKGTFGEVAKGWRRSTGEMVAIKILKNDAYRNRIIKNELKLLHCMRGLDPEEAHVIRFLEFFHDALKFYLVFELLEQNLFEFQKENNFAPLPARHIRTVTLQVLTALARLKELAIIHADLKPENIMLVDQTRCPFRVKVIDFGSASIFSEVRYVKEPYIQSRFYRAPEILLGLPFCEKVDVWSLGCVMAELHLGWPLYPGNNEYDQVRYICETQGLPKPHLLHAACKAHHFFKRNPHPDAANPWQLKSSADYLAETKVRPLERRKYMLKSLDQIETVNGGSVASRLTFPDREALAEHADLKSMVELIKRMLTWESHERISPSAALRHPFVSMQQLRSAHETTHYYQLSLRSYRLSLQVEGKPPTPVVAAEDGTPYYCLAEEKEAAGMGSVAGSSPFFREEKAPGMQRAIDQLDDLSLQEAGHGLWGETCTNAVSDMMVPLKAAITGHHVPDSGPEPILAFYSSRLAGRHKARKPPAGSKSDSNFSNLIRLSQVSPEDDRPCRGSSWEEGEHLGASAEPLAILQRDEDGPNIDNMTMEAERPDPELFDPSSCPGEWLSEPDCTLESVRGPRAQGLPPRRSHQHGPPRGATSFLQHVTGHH

[13] = target: T3, Serine/threonine-protein kinase Sgk3 (Homo sapiens) (UniProt Q96BR1); experiment: Inhibition of human recombinant SGK3 at 40 nM in presence of ATP by radiometric assay relative to control
T3 sequence (whole entry): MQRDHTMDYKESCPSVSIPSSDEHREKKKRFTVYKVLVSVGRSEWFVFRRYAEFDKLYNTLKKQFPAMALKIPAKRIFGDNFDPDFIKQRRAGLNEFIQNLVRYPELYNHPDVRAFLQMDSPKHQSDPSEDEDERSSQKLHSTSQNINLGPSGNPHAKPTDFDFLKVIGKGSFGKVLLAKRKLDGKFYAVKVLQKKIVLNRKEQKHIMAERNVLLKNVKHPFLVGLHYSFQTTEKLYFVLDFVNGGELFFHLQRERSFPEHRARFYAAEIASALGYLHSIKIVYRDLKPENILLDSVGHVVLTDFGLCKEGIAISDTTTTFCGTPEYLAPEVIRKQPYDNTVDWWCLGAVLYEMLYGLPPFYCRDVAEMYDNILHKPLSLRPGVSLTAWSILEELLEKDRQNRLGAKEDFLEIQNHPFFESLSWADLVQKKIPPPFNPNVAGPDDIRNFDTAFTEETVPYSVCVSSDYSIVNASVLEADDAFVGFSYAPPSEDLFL

[14] = target: Angiopoietin-1 receptor (Homo sapiens) (UniProt Q02763); experiment: Inhibition of human recombinant Tie2 at 40 nM in presence of ATP by radiometric assay relative to control
[15] = target: Serine/threonine-protein kinase 33 (Homo sapiens) (UniProt Q9BYT3); experiment: Inhibition of human recombinant STK33 at 40 nM in presence of ATP by radiometric assay relative to control
[16] = target: Platelet-derived growth factor receptor beta (Homo sapiens) (UniProt P09619); experiment: Inhibition of human recombinant PDGFRb at 40 nM in presence of ATP by radiometric assay relative to control
Platelet-derived growth factor receptor beta (Homo sapiens), sequence (P09619 whole entry): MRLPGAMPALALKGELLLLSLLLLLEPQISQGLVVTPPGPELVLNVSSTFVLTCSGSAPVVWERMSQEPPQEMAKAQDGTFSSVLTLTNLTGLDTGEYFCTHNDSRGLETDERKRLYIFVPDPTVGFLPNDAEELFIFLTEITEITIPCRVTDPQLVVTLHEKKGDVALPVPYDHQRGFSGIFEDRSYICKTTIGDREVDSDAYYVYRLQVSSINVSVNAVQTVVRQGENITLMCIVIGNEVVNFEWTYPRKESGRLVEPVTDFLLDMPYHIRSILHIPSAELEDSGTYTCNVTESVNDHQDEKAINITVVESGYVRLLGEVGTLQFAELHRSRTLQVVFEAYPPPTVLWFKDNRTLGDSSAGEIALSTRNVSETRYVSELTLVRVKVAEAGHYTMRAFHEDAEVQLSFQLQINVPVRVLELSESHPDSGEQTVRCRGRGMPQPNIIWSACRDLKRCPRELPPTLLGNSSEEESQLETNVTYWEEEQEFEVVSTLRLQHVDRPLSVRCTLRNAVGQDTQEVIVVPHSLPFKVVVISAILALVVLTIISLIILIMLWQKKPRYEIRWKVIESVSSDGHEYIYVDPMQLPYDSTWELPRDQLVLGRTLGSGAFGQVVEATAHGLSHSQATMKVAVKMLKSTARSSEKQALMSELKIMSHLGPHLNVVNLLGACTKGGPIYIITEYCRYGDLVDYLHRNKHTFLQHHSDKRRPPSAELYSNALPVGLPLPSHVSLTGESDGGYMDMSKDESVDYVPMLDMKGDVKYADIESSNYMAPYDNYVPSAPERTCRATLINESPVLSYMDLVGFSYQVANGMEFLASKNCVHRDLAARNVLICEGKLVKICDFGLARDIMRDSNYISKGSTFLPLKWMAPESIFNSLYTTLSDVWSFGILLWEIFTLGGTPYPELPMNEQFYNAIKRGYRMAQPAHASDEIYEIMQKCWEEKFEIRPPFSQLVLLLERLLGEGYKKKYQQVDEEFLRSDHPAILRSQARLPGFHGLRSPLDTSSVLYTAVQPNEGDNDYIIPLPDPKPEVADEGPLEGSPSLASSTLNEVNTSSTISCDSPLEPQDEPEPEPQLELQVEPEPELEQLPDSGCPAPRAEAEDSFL

Serine/threonine-protein kinase 32C (Homo sapiens), sequence (Q86UX6 whole entry): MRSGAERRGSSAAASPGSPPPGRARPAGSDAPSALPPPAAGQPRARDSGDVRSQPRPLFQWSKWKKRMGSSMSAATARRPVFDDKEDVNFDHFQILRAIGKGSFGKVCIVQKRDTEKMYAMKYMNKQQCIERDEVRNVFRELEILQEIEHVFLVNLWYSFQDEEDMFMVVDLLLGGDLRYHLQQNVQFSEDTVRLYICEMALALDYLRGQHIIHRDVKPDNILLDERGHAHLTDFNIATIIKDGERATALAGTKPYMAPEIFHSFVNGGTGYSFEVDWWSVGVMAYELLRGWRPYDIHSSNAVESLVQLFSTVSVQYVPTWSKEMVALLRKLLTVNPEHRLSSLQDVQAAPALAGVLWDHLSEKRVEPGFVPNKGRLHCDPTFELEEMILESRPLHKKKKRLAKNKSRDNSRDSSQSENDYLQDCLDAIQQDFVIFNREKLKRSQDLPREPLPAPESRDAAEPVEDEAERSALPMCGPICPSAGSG
Insulin receptor-related protein (Homo sapiens), sequence (P14616 27-742 limits assumed): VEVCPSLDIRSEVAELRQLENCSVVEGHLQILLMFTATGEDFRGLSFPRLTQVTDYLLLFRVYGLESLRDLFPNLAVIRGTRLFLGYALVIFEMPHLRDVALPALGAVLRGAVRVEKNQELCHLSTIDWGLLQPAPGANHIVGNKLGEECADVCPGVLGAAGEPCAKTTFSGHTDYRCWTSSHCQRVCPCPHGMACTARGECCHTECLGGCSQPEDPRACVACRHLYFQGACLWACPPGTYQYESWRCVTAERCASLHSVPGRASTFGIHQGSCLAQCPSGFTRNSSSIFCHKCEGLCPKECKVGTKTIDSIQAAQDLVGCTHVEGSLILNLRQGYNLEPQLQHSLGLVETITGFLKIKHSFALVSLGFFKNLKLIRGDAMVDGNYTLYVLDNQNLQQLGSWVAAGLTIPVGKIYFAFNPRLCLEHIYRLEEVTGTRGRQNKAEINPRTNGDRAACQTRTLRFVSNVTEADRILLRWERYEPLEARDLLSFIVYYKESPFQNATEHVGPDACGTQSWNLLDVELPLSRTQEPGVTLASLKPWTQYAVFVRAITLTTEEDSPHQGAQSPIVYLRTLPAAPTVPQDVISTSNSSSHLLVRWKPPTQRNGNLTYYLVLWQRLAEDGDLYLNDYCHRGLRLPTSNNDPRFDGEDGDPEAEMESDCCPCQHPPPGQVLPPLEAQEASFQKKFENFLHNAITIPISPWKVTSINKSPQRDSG
Insulin receptor-related protein (Homo sapiens), sequence (P14616 747-1297 limits assumed): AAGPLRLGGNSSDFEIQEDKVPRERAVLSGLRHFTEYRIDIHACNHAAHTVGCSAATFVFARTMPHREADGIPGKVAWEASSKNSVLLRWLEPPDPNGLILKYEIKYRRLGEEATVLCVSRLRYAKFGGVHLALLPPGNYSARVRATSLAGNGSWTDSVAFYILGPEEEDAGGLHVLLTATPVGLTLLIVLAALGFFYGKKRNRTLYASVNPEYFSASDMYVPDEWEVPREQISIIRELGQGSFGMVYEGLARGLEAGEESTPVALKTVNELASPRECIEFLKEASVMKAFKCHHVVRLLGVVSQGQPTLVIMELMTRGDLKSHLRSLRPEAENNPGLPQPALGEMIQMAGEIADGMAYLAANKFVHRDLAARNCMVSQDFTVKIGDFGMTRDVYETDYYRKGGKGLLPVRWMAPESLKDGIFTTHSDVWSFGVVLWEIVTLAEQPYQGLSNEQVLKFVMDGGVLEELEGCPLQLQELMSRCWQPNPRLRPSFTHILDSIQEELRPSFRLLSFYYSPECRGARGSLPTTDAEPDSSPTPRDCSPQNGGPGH
Angiopoietin-1 receptor (Homo sapiens), sequence (Q02763 whole entry): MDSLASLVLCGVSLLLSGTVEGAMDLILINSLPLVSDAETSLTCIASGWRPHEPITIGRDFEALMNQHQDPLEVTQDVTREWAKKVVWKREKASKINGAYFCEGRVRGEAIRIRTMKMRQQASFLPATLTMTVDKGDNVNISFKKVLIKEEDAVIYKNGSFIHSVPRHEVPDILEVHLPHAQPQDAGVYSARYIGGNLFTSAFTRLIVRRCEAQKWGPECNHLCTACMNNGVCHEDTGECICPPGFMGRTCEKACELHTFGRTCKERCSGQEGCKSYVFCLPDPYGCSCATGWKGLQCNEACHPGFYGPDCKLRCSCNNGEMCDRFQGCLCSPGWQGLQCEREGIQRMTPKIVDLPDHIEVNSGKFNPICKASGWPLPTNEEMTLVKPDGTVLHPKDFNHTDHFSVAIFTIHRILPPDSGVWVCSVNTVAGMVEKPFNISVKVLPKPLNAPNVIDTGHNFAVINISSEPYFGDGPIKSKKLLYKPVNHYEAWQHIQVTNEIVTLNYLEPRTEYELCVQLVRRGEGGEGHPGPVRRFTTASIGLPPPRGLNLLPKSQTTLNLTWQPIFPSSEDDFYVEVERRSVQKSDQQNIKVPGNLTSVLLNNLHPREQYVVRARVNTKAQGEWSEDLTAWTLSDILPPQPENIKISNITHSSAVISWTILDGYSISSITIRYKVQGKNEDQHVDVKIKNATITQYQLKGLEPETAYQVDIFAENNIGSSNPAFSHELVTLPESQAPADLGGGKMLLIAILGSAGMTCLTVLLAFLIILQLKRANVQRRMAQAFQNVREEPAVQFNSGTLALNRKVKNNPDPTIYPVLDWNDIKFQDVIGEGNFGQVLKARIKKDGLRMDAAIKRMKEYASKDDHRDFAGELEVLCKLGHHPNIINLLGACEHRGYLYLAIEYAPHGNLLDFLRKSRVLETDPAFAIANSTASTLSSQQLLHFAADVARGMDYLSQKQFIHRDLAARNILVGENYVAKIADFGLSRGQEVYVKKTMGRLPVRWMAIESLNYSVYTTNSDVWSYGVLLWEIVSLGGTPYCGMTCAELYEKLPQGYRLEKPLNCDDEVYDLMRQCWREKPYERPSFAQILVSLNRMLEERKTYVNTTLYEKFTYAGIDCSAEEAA
Phosphorylase b kinase gamma catalytic chain, skeletal muscle/heart isoform (Homo sapiens), sequence (Q16816 whole entry, looked up, canonical isoform): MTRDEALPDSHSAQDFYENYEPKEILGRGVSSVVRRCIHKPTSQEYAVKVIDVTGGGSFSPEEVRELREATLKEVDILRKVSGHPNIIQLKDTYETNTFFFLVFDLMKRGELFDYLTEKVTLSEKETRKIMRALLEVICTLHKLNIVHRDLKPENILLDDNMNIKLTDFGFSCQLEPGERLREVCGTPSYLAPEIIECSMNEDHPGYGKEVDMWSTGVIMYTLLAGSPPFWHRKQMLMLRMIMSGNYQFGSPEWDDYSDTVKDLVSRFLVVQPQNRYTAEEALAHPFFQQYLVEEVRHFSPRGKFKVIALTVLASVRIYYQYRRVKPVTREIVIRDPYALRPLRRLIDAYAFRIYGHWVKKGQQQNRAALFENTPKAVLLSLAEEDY
Glycogen synthase kinase-3 alpha (Homo sapiens), sequence (P49840 2-483 limits assumed): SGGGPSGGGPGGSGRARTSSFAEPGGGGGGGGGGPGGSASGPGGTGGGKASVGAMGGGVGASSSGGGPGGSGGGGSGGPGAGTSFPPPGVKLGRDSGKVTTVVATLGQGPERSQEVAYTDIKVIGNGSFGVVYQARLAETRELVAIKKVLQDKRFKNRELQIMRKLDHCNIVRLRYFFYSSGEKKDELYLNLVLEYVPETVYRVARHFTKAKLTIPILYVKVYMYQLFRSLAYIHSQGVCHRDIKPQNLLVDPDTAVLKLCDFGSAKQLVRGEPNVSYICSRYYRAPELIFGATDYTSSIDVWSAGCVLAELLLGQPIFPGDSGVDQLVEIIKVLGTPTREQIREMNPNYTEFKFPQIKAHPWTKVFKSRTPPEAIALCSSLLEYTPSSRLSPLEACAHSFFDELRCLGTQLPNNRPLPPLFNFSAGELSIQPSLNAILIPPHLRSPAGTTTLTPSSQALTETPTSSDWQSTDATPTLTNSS

fold change (FC) [1]: 0.31
fold change (FC) [2]: 0.14
fold change (FC) [3]: 0
fold change (FC) [4]: 0.12
SMILES: CNC(=O)c1ccccc1Oc1nc(Nc2cc(OC)c(OC)c(OC)c2)ncc1Br

fold change (FC) [5]: 0
fold change (FC) [6]: 0.03
fold change (FC) [7]: 0.05
fold change (FC) [8]: 0.02
SMILES: CC(C)[C@H](NC(=O)c1cc(-c2cnn3cc(-c4ccc(OCCN5CCCCC5)cc4)cnc23)cs1)C(F)(F)F

inhibition [9]: 0%
fold change (FC) [10]: 0.71
fold change (FC) [11]: 0.07
fold change (FC) [12]: 0
inhibition [13]: 0%
inhibition [14]: 0%
inhibition [15]: 19%
inhibition [16]: 5%
SMILES: O=C(N[C@@H](C1CC1)C(F)(F)F)c1cc(-c2cnn3cc(-c4ccc(F)cc4)cnc23)cs1
